Measurements: PubChem BioAssay AID256 (DTP/NCI, 2004)
Toxic doses and inconclusive results are not listed. The calls were made as follows: active = survival T/C of 150% or more; inactive = T/C below 125% in these data.

System: CD2F1 mice, L1210 leukemia ip, survival T/C
Test: NCI In Vivo Anticancer Drug Screen. Data for tumor model L1210 Leukemia (intraperitoneal) in CD2F1 (CDF1) mice
Conditions: endpoint: mean survival time, higher = longer survival
Description: The antitumor activity of compounds was measured in mice bearing transplantable tumors. Survival or tumor size were measured and the results are expressed as the measurement made in the treated group (T) divided by the measurement made in the vehicle treated control group (C). The tumor model used in this assay is L1210 Leukemia (intraperitoneal) in CD2F1 (CDF1) mice

[1] = dose: 100.0 mg/kg/injection, schedule: Q04DX003 (ip), vehicle: saline with Tween-80
[2] = dose: 200.0 mg/kg/injection, schedule: Q04DX003 (ip), vehicle: saline with Tween-80
[3] = dose: 400.0 mg/kg/injection, schedule: Q04DX003 (ip), vehicle: saline with Tween-80
[4] = dose: 50.0 mg/kg/injection, schedule: Q01DX009 (ip), vehicle: saline with Tween-80
[5] = dose: 100.0 mg/kg/injection, schedule: Q01DX009 (ip), vehicle: saline with Tween-80
[6] = dose: 200.0 mg/kg/injection, schedule: Q01DX009 (ip), vehicle: saline with Tween-80
[7] = dose: 100.0 mg/kg/injection, schedule: Q04DX003 (ip), vehicle: saline
[8] = dose: 200.0 mg/kg/injection, schedule: Q04DX003 (ip), vehicle: saline
[9] = dose: 400.0 mg/kg/injection, schedule: Q04DX003 (ip), vehicle: saline
[10] = dose: 25.0 mg/kg/injection, schedule: Q01DX009 (ip), vehicle: saline with Tween-80
[11] = dose: 100.0 mg/kg/injection, schedule: Q04DX003 (ip), vehicle: acetone
[12] = dose: 100.0 mg/kg/injection, schedule: Q04DX003 (ip), vehicle: other
[13] = dose: 200.0 mg/kg/injection, schedule: Q04DX003 (ip), vehicle: other
[14] = dose: 400.0 mg/kg/injection, schedule: Q04DX003 (ip), vehicle: other
[15] = dose: 400.0 mg/kg/injection, schedule: Q01DX009 (ip), vehicle: saline with Tween-80
[16] = dose: 100.0 mg/kg/injection, schedule: Q01DX001 (ip), vehicle: saline with Tween-80
[17] = dose: 200.0 mg/kg/injection, schedule: Q01DX001 (ip), vehicle: saline with Tween-80
[18] = dose: 400.0 mg/kg/injection, schedule: Q01DX001 (ip), vehicle: saline with Tween-80
[19] = dose: 100.0 mg/kg/injection, schedule: Q01DX009 (ip), vehicle: Klucel (hydroxypropylcellulose) (HPC)
[20] = dose: 12.5 mg/kg/injection, schedule: Q01DX009 (ip), vehicle: saline with Tween-80

Measured: T/C

NC(=O)c1cc2c3ccccc3ncc2c2ccccc12
inactive: [1] 101 % of control | [2] 97 % of control | [3] 94 % of control

COc1cc2ccc(/C=N/NC(N)=S)cc2cc1OC
inactive: dose: 25.0 mg/kg/injection, schedule: Q01DX009 (ip), vehicle: water 94 % of control | dose: 50.0 mg/kg/injection, schedule: Q01DX009 (ip), vehicle: water 98 % of control | dose: 100.0 mg/kg/injection, schedule: Q01DX009 (ip), vehicle: water 102 % of control | dose: 200.0 mg/kg/injection, schedule: Q01DX009 (ip), vehicle: water 93 % of control

COC1OC(COC(=O)c2ccccc2)C(OC(=O)c2ccccc2)C(OC(=O)c2ccccc2)C1OC(=O)c1ccccc1 (stereo not given)
inactive: [1] 95 % of control | [2] 91 % of control | [3] 87 % of control

C=CCNc1ncnc2c1ncn2C1OC(CO)C(O)C1O (stereo not given)
inactive: dose: 75.0 mg/kg/injection, schedule: Q01DX001 (ip), vehicle: other 112 % of control | dose: 150.0 mg/kg/injection, schedule: Q01DX001 (ip), vehicle: other 103 % of control

O=C(/C=C/C(=O)OCCCl)OCCCl
inactive: [1] 104 % of control | [2] 96 % of control

CN(C)c1ccc(/C=[N+](\[O-])c2ccccc2)cc1
inactive: [4] 92 % of control | [5] 103 % of control | [6] 100 % of control

CCN(CC)c1ccc(N=Nc2c(C)nc(N)nc2-c2ccccc2)cc1
inactive: dose: 150.0 mg/kg/injection, schedule: Q01DX001 (ip), vehicle: saline 97 % of control

NCCS/C=C/C(=O)O
inactive: [7] 97 % of control | [8] 109 % of control | [9] 101 % of control

NC(Cc1cccc(NP(=S)(N2CC2)N2CC2)c1)C(=O)O (stereo not given)
inactive: dose: 100.0 mg/kg/injection, schedule: Q01DX009 (ip), vehicle: saline 119 % of control | [7] 113 % of control | dose: 200.0 mg/kg/injection, schedule: Q01DX009 (ip), vehicle: saline 100 % of control

O=C(NNc1ccccc1)C(F)(F)F
inactive: [10] 107 % of control | [4] 101 % of control | [11] 93 % of control

C[Si](C)(C)Oc1ccc(O[Si](C)(C)C)cc1
inactive: [12] 109 % of control | [13] 97 % of control | [14] 106 % of control

COC(=O)C(Cc1ccc(N(CCCl)CCCl)cc1)N=NNc1nc[nH]c1C(N)=O (stereo not given)
inactive: dose: 88.0 mg/kg/injection, schedule: Q01DX001 (ip), vehicle: steriod suspending solution 116 % of control | dose: 133.0 mg/kg/injection, schedule: Q01DX001 (ip), vehicle: steriod suspending solution 115 % of control | dose: 300.0 mg/kg/injection, schedule: Q01DX001 (ip), vehicle: steriod suspending solution 116 % of control

COc1ccc(C(=O)NCCc2ccc(OC)c(OC)c2)cc1O
inactive: dose: 12.5 mg/kg/injection, schedule: Q01DX009 (ip), vehicle: other 100 % of control | dose: 25.0 mg/kg/injection, schedule: Q01DX009 (ip), vehicle: other 94 % of control | dose: 50.0 mg/kg/injection, schedule: Q01DX009 (ip), vehicle: other 96 % of control | dose: 100.0 mg/kg/injection, schedule: Q01DX009 (ip), vehicle: other 90 % of control | dose: 200.0 mg/kg/injection, schedule: Q01DX009 (ip), vehicle: other 96 % of control

COC(=O)C1(C(=O)OC)CCCCC1=O
inactive: [5] 98 % of control | [1] 97 % of control | [6] 95 % of control | [2] 94 % of control | [15] 95 % of control | [3] 89 % of control

CC(=O)Nc1ccc(-c2c(N)ncc3ccccc23)cc1
inactive: dose: 50.0 mg/kg/injection, schedule: Q04DX003 (ip), vehicle: other 94 % of control | [12] 94 % of control | [13] 96 % of control | [14] 100 % of control

CCOc1ccc(-n2c(=O)c(N=Nc3ccccc3)c(O)n(-c3ccccc3OC)c2=S)cc1
inactive: [16] 102 % of control | [17] 89 % of control | [18] 90 % of control

Cc1ccc(S(=O)(=O)N(CC(=O)O)c2cccc(Cl)c2)cc1
inactive: [19] 101 % of control | dose: 200.0 mg/kg/injection, schedule: Q01DX009 (ip), vehicle: Klucel (hydroxypropylcellulose) (HPC) 98 % of control | dose: 400.0 mg/kg/injection, schedule: Q01DX009 (ip), vehicle: Klucel (hydroxypropylcellulose) (HPC) 100 % of control

Cc1cc(C)c(SC2c3ccccc3-c3ccccc32)c(C)c1
inactive: dose: 100.0 mg/kg/injection, schedule: Q01DX001 (ip), vehicle: saline 94 % of control | [7] 98 % of control | dose: 200.0 mg/kg/injection, schedule: Q01DX001 (ip), vehicle: saline 95 % of control | [8] 90 % of control | dose: 400.0 mg/kg/injection, schedule: Q01DX001 (ip), vehicle: saline 94 % of control | [9] 97 % of control

CC([NH-])C([NH-])O.[Cl][Pt+2][Cl] (stereo not given)
inactive: dose: 6.25 mg/kg/injection, schedule: Q04DX003 (ip), vehicle: saline with Tween-80 115 % of control

CN(C)N=Nc1ccc(C(=O)N/N=C/c2ccccc2[N+](=O)[O-])cc1
inactive: [7] 104 % of control | [8] 101 % of control | [9] 115 % of control

O=C(Oc1ccccc1Cl)c1ccccc1
inactive: [5] 100 % of control | [1] 105 % of control | [6] 98 % of control | [2] 100 % of control | [15] 108 % of control | [3] 111 % of control

Nc1nc(=O)n(CCCOc2ccc(Cl)cc2)cc1-c1ccccc1
inactive: [16] 98 % of control | [17] 101 % of control | [18] 88 % of control

O=c1[nH]c(=O)n(C2OC(CO)C(O)C2O)cc1Br (stereo not given)
inactive: dose: 100.0 mg/kg/injection, schedule: Q04DX002 (ip), vehicle: saline with Tween-80 109 % of control | dose: 200.0 mg/kg/injection, schedule: Q04DX002 (ip), vehicle: saline with Tween-80 101 % of control | dose: 400.0 mg/kg/injection, schedule: Q04DX002 (ip), vehicle: saline with Tween-80 101 % of control

O=C1CCCC[CH]1[Hg][Cl] (stereo not given)
inactive: dose: 1.25 mg/kg/injection, schedule: Q01DX009 (ip), vehicle: saline 95 % of control | dose: 2.5 mg/kg/injection, schedule: Q01DX009 (ip), vehicle: saline 107 % of control

CC1(C)C2CC=C(CCN=[N+]=[N-])C1C2 (stereo not given)
inactive: dose: 50.0 mg/kg/injection, schedule: Q01DX009 (ip), vehicle: saline sonified 97 % of control | dose: 100.0 mg/kg/injection, schedule: Q01DX009 (ip), vehicle: saline sonified 97 % of control | [1] 105 % of control | dose: 200.0 mg/kg/injection, schedule: Q01DX009 (ip), vehicle: saline sonified 95 % of control | [2] 97 % of control

Cc1cc(Cl)ccc1NC(=O)N1CCCC(C)C1 (stereo not given)
inactive: [20] 95 % of control | [10] 102 % of control | [4] 91 % of control

COc1ccccc1NC(=O)Nc1cccc(Cl)c1
inactive: [5] 95 % of control | [1] 94 % of control | [6] 93 % of control | [2] 97 % of control | [15] 88 % of control | [3] 86 % of control

C#CCOCCC(C(=O)OCC)C(=O)OCC
inactive: [11] 108 % of control | dose: 200.0 mg/kg/injection, schedule: Q04DX003 (ip), vehicle: acetone 103 % of control | dose: 400.0 mg/kg/injection, schedule: Q04DX003 (ip), vehicle: acetone 110 % of control

O=C(CNC(=O)Nc1cccc([N+](=O)[O-])c1)NNC(=O)Nc1ccc(Cl)c([N+](=O)[O-])c1
inactive: [5] 91 % of control | [6] 87 % of control

C[Si](F)(c1cccc2ccccc12)c1cccc2ccccc12
inactive: [5] 93 % of control | [6] 98 % of control | [15] 96 % of control

O=C1C=C(NC2CCCCCC2)C(=O)c2nccnc21
inactive: dose: 6.25 mg/kg/injection, schedule: Q01DX009 (ip), vehicle: saline with Tween-80 91 % of control | [20] 95 % of control | [10] 91 % of control | [4] 93 % of control

CC(NC(=O)CNC(=O)OCc1ccccc1)C(=O)O (stereo not given)
inactive: [1] 98 % of control | [2] 96 % of control | [3] 93 % of control

C=C(Br)CNC(=O)Nc1c2ccccc2nc2ccccc12
inactive: dose: 25.0 mg/kg/injection, schedule: Q01DX009 (ip), vehicle: Klucel (hydroxypropylcellulose) (HPC) 97 % of control | dose: 50.0 mg/kg/injection, schedule: Q01DX009 (ip), vehicle: Klucel (hydroxypropylcellulose) (HPC) 98 % of control | [19] 97 % of control
